Laboratory results: US20200038411A1, “METHODS OF TREATING TE[…]” (priority 2017, published 2020)
“Also recorded” adds a separate entry of the source.

Columns and labels:
[1] = men; upper range for testosterone administered as TU (lymphatic absorption); cited from earlier work
[2] = Single 316 mg oral TU dose, T concentration-time profiles by sample collection tube type; format: in vivo, human; settings: 3 hours post dose
Experimental: Each study participant received a single oral TU dose containing 316 mg TU immediately prior to a standardized breakfast meal comprised of 800 to 1000 calories containing approximately 30 g of fat or about 25 to 30 percent fat. Subjects were instructed to consume the entire breakfast meal in no more than 30 minutes. Blood samples were collected 30 minutes prior to oral TU administration and at 0 (pre-dose), and 1, 2, 3, 4, 5, 6, 7, 8, 9, 10, 11 and 12 hrs post-dose. Because of the timed sample collections, all except for one subject entered the clinical research unit around 7 AM and spend the study period of 12 to 14 hours in the unit. […]
Blood samples collected in tubes were kept at room temperature for 30 minutes then centrifuged at 4° C. for 20 minutes at >1000 g. For each blood collection tube, serum was separated promptly after centrifugation and equal quantities of serum were transferred into 2 appropriately labelled polypropylene tubes. […]
Blood samples collected in tubes were immediately kept on ice for 30 minutes then centrifuged at 4° C. for 20 minutes at >1000 g. For each blood collection tube, serum was separated promptly after centrifugation and equal quantities of serum were transferred into 2 appropriately labelled polypropylene tubes. […]
The frozen samples were stored at −20° C. until assay. All samples from a single participant were analyzed in the same assay run. […]

[3] = In vitro conversion of TU to T in whole blood at ambient temperature; format: in vitro ADME; settings: human blood, conditions typical of harvesting serum, no enzyme inhibitors
Experimental: Testosterone undecanoate is metabolized into testosterone. Its degradation in whole blood into testosterone has been studied in conditions typically used in clinical trials.
The in vitro conversion of TU to T in whole blood samples at ambient temperature was investigated by harvesting approximately 50 mL of blood from subjects prior to their oral TU administration. Aliquots of the pretreatment whole blood were added to 5 Plain sample collection tubes each tube previously spiked with 1 of 5 selected concentrations of TU (0, 30, 100, 300 and 1000 ng/mL). After gentle mixing, the tubes were stored at room temperature (about 23° C.) for 30 minutes prior to separating serum. […]
The frozen samples were stored at −20° C. until assay. All samples from a single participant were analyzed in the same assay run. Serum and plasma from the different tubes were measured using the methods developed for serum. Both T and DHT were measured in the same assay and both TU and […] were analyzed in the same assay developed for serum measurements. […]
When serum is harvested in the absence of enzyme inhibitors, the hydrolysis of TU and DHTU to T and DHT occurs during whole blood collection and processing to serum. […] Thus, testosterone must be analyzed in enzyme-inhibited plasma when TU is the administered medication.

[4] = Blood collected into different tubes spiked with TU, measured T (LA Biomed experiments); format: in vitro ADME, human
Source text: Additionally, non-specific esterases in blood may lead to hydrolysis of testosterone undecanoate (TU) (and its metabolite DHTU) during the blood collection procedure used to collect serum or plasma for evaluating T, dihydrotestosterone (DHT), TU and dihydrotestosterone undecanoate (DHTU) concentrations. If the extent of hydrolysis ex vivo is significant (e.g., at high concentrations of circulating TU or DHTU), then serum or plasma values of T, DHT, TU and DHTU may not accurately reflect the true in vivo concentrations of these compounds (e.g., T and DHT values may be artificially high due to ex vivo conversion of TU to T or DHTU to DHT). It has previously been shown that the collection of blood in sodium fluoride (NaF) containing tubes (so called ‘gray tops’ in a clinical setting) interfered with the measurement of serum T with a 20% decrease in the measured serum T levels (Wang, et al, 2008). […] In addition, the measured T concentrations in fluoride-containing tubes decreased by about 12 to 25%. Lachance et al published an article in 2015 that concluded T must be analyzed in enzyme-inhibited (i.e., NaF containing) plasma or serum when TU is administered to subjects in an oral form.

SMILES	plasma half-life of testosterone [1] [min]	difference in mean T concentration between the Plain tube type and the other tube types [2]	mean assayed T concentration of NaF tube types, less than the Plain tube type [2]	degradation (conversion) of TU to testosterone in whole blood [3]	increases in the measured T levels after spiking with TU ([4]; NaF+oxalate and NaF+EDTA tubes kept at 4° C. for 30 minutes, 0, 300 or 600 ng/ml TU)	increase in measured T concentrations (ex vivo conversion of TU to T) ([4]; addition of TU in excess of 500 ng/ml, standard 'red top' plain tubes without additives) [%]
C[C@]12CC[C@H]3[C@@H](CCC4=CC(=O)CC[C@@]43C)[C@@H]1CC[C@@H]2O [T, Testosterone]	10 to 100					
CCCCCCCCCCC(=O)O[C@H]1CC[C@H]2[C@@H]3CCC4=CC(=O)CC[C@]4(C)[C@H]3CC[C@]12C [TU, testosterone undecanoate]		approximately 150 ng/dL	approximately 14%	degrades extensively; also recorded: extensive and continues over time	minimal increases	20 to 25
